For the assay, the target named is T1, human kinase Mps-1 (Homo sapiens, UniProt P33981).
T1 construct: N-terminally GST-tagged human full length recombinant Mps-1 kinase; GST (N); purchased Invitrogen, Karslruhe, Germany PV4071
T1 sequence (P33981 1-857): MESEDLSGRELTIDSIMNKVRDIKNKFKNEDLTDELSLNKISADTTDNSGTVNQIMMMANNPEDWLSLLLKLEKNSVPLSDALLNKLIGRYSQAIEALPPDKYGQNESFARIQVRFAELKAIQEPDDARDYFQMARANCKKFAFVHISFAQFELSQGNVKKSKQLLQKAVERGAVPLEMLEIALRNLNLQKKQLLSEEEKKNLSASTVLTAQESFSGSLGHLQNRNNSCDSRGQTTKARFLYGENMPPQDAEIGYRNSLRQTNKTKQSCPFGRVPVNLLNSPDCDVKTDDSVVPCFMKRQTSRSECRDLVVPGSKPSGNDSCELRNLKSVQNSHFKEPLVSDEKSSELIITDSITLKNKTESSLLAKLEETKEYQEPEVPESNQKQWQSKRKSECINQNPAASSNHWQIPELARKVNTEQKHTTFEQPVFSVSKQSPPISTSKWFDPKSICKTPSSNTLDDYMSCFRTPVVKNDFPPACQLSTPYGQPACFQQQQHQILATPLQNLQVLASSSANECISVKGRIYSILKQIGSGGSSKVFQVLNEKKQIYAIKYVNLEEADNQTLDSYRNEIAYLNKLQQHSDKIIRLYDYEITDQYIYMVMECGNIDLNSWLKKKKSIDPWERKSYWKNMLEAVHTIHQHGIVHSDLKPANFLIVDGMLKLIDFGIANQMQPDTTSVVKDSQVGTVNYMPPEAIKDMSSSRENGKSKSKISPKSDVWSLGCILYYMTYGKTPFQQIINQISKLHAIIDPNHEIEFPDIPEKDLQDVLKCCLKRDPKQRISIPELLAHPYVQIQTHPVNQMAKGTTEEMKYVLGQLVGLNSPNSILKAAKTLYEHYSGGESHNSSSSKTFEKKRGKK
The assay is described as follows: Mps-1 kinase assay (TR-FRET). Type of assay: biochemical. The following applies: N-terminally GST-tagged human full length recombinant Mps-1; 10 μM ATP; 1 μM peptide substrate; 15 min pre-incubation; 60 min at 22° C. On the procedure:
The human kinase Mps-1 phosphorylates a biotinylated substrate peptide. Detection of the phosphorylated product is achieved by time-resolved fluorescence resonance energy transfer (TR-FRET) from Europium-labelled anti-phospho-Serine/Threonine antibody as donor to streptavidin labelled with cross-linked allophycocyanin (SA-XLent) as acceptor. Compounds are tested for their inhibition of the kinase activity.
N-terminally GST-tagged human full length recombinant Mps-1 kinase (purchased from Invitrogen, Karslruhe, Germany, cat. no PV4071) was used. As substrate for the kinase reaction a biotinylated peptide of the amino-acid sequence […] (C-terminus in amide form, purchased from Biosynthan GmbH, Berlin) was used.
The concentration of Mps-1 in the assay was adjusted to the activity of the enzyme lot and was chosen appropriate to have the assay in the linear range, typical enzyme concentrations were in the range of about 1 nM (final conc. in the 5 μl assay volume).
The resulting mixture was incubated 1 h at 22° C. to allow the binding of the phosphorylated peptide to the anti-phospho(Ser/Thr)-Europium-antibody. Subsequently the amount of phosphorylated substrate was evaluated by measurement of the resonance energy transfer from the Europium-labelled anti-phospho(Ser/Thr) antibody to the Streptavidin-XLent. Therefore, the fluorescence emissions at 620 nm and 665 nm after excitation at 350 nm was measured in a Viewlux TR-FRET reader (PerkinElmer LAS, Rodgau-Jügesheim, Germany). The “blank-corrected normalized ratio” (a Viewlux specific readout, similar to the traditional ratio of the emissions at 665 nm and at 622 nm, in which blank and Eu-donor crosstalk are subtracted from the 665 nm signal before the ratio is calculated) was taken as the measure for the amount of phosphorylated substrate.

This note sets out measurements from patent publication US20140187548A1, “6 SUBSTITUTED IMIDAZOPYRAZINES FOR USE AS MPS-1 AND TKK INHIBITORS IN THE TREATMENT OF HYPERPROLIFERATIVE DISORDERS” (BAYER INTELLECTUAL PROPERTY GMBH, priority 2010, published 2014).

Take `O=C(NC1CC1)c1ccc(-c2cnc3c(NCC4CCC(C(F)(F)F)CC4)nc(-c4ccccc4)cn23)cc1` (mixture of isomers) [Example 2-86, N-cyclopropyl-4-[6-phenyl-8-([[4-(trifluoromethyl)cyclohexyl]methyl]amino)imidazo[1,2-a]pyrazin-3-yl]benzamide]: the IC50 stood at 12.4 nM.
In the case of `CC(C)CNc1nc(-c2ccc(C(C)O)cc2)cn2c(-c3ccc(C(=O)NC4CC4)cc3)cnc12` (racemic) [Example 6-2, (RS)N-cyclopropyl-4-{6-[4-(1-hydroxyethyl)phenyl]-8-(isobutylamino)imidazo[1,2-a]pyrazin-3-yl}benzamide] it was 1.1 nM.
As for `CC(C)CNc1nc(-c2cccc([N+](=O)[O-])c2)cn2c(-c3ccc(C(=O)NC4CC4)cc3)cnc12` [Example 1-2, N-cyclopropyl-4-{8-[(2-methylpropyl)amino]-6-(3-nitrophenyl)imidazo [1,2-a]pyrazin-3-yl} benzamide], the IC50 was 5.5 nM.
With `CC(C)CNc1nc(-c2ccc3c(c2)OCCO3)cn2c(-c3ccc(C(=O)NC4CC4)cc3)cnc12` [Example 1-3, N-cyclopropyl-4-{6-(2,3-dihydro-1,4-benzodioxin-6-yl)-8-[(2-methyl-propyl)amino]imidazo [1,2-a]pyrazin-3-yl} benzamide], the IC50 came out at 18.4 nM.
To `CC(C)CNc1nc(-c2cccc3ccccc23)cn2c(-c3ccc(C(=O)NC4CC4)cc3)cnc12` [Example 1-4, N-cyclopropyl-4-{8-[(2-methylpropyl)amino]-6-(naphthalen-1-yl)imidazo[1,2-a]pyrazin-3-yl}benzamide] belongs 4.6 nM; to `CC(C)CNc1nc(-c2cccc(CO)c2)cn2c(-c3ccc(C(=O)NC4CC4)cc3)cnc12` [Example 1-5, N-cyclopropyl-4-{6-[3-(hydroxymethyl)phenyl]-8-[(2-methylpropyl)amino]imidazo[1,2-a]pyrazin-3-yl}benzamide], 1.4 nM; to `CC(C)CNc1nc(-c2ccc(F)cc2)cn2c(-c3ccc(C(=O)NC4CC4)cc3)cnc12` [Example 1-6, N-cyclopropyl-4-{6-(4-fluorophenyl)-8-[(2-methylpropyl)amino]imidazo[1,2-a]pyrazin-3-yl}benzamide], 2.3 nM.
As for `Cc1ccc(-c2cn3c(-c4ccc(C(=O)NC5CC5)cc4)cnc3c(NCC(C)C)n2)cc1` [Example 1-7, N-cyclopropyl-4-{6-(4-methylphenyl)-8-[(2-methylpropyl)amino]imidazo[1,2-a]pyrazin-3-yl}benzamide], the IC50 worked out at 5.7 nM.
With `Cc1cccc(-c2cn3c(-c4ccc(C(=O)NC5CC5)cc4)cnc3c(NCC(C)C)n2)c1` [Example 1-8, N-cyclopropyl-4-{6-(3-methylphenyl)-8-[(2-methylpropyl)amino]imidazo[1,2-a]pyrazin-3-yl}benzamide], the IC50 is 4.9 nM.
In the case of `Cc1cccc(-c2cn3c(-c4ccc(C(=O)NC5CC5)cc4)cnc3c(NCC(C)C)n2)c1C` [Example 1-9, N-cyclopropyl-4-{6-(2,3-dimethylphenyl)-8-[(2-methylpropyl)amino]imidazo[1,2-a]pyrazin-3-yl}benzamide] it was 2.4 nM.
For `CC(C)CNc1nc(-c2cc(Cl)cc(Cl)c2)cn2c(-c3ccc(C(=O)NC4CC4)cc3)cnc12` [Example 1-10, N-cyclopropyl-4-{6-(3,5-dichlorophenyl)-8-[(2-methylpropyl)amino]imidazo[1,2-a]pyrazin-3-yl}benzamide], the IC50 was determined as 1110 nM.
To `COC(=O)c1cccc(-c2cn3c(-c4ccc(C(=O)NC5CC5)cc4)cnc3c(NCC(C)C)n2)c1` [Example 1-11, methyl 3-{3-[4-(cyclopropyl-carbamoyl)phenyl]-8-[(2-methylpropyl)amino]imidazo[1,2-a]pyrazin-6-yl}benzoate] belongs 2.3 nM; to `Cc1cc(-c2cn3c(-c4ccc(C(=O)NC5CC5)cc4)cnc3c(NCC(C)C)n2)cc(C)c1O` [Example 1-12, N-cyclopropyl-4-{6-(4-hydroxy-3,5-dimethyl-phenyl)-8-[(2-methyl-propyl)amino]imidazo [1,2-a]pyrazin-3-yl} benzamide], 3.8 nM.
For `COc1cccc(-c2cn3c(-c4ccc(C(=O)NC5CC5)cc4)cnc3c(NCC(C)C)n2)c1F` [Example 1-13, N-cyclopropyl-4-{6-(2-fluoro-3-methoxyphenyl)-8-[(2-methylpropyl)amino]imidazo[1,2-a]pyrazin-3-yl}benzamide], the IC50 stood at 7 nM.
Regarding `CC(=O)Nc1ccccc1-c1cn2c(-c3ccc(C(=O)NC4CC4)cc3)cnc2c(NCC(C)C)n1` [Example 1-14, 4-{6-[2-(acetylamino)phenyl]-8-[(2-methyl-propyl)amino]imidazo [1,2-a]pyrazin-3-yl}-N-cyclopropylbenzamide], the IC50 is 11.2 nM.
In the case of `CC(C)CNc1nc(-c2cccc(NS(C)(=O)=O)c2)cn2c(-c3ccc(C(=O)NC4CC4)cc3)cnc12` [Example 1-15, N-cyclopropyl-4-(8-[(2-methylpropyl)amino]-6-{3-[(methylsulfonyl)amino]phenyl}imidazo [1,2-a]pyrazin-3-yl) benzamide] it was 1.8 nM.
Take `CC(C)CNc1nc(-c2ccc(C(=O)N(C)C)cc2)cn2c(-c3ccc(C(=O)NC4CC4)cc3)cnc12` [Example 1-16, 4-{3-[4-(cyclopropyl-carbamoyl)phenyl]-8-[(2-methylpropyl)amino]imidazo[1,2-a]pyrazin-6-yl}-N,N-dimethyl-benzamide]: the IC50 was 2.7 nM.
To `COc1cccc(-c2cn3c(-c4ccc(C(=O)NC5CC5)cc4)cnc3c(NCC(C)C)n2)c1OC` [Example 1-17, N-cyclopropyl-4-{6-(2,3-dimethoxyphenyl)-8-[(2-methylpropyl)amino]imidazo[1,2-a]pyrazin-3-yl}benzamide] belongs 14.4 nM.
For `CSc1ccc(-c2cn3c(-c4ccc(C(=O)NC5CC5)cc4)cnc3c(NCC(C)C)n2)cc1` [Example 1-18, N-cyclopropyl-4-{8-[(2-methylpropyl)amino]-6-[4-(methylsulfanyl)phenyl]imidazo[1,2-a]pyrazin-3-yl}benzamide], the IC50 is 8.5 nM.
In the case of `Cc1ccccc1-c1cn2c(-c3ccc(C(=O)NC4CC4)cc3)cnc2c(NCC(C)C)n1` [Example 1-19, N-cyclopropyl-4-{6-(2-methylphenyl)-8-[(2-methylpropyl)amino]imidazo[1,2-a]pyrazin-3-yl}benzamide] it was 1.5 nM; in that of `CC(C)CNc1nc(-c2cccc3ncccc23)cn2c(-c3ccc(C(=O)NC4CC4)cc3)cnc12` [Example 1-20, N-cyclopropyl-4-{8-[(2-methylpropyl)amino]-6-(quinolin-5-yl)imidazo [1,2-a]pyrazin-3-yl} benzamide], 1 nM.
In the case of `COc1cc(OC)cc(-c2cn3c(-c4ccc(C(=O)NC5CC5)cc4)cnc3c(NCC(C)C)n2)c1` [Example 1-21, N-cyclopropyl-4-{6-(3,5-dimethoxyphenyl)-8-[(2-methylpropyl)amino]imidazo[1,2-a]pyrazin-3-yl}benzamide] it was 19 nM; in that of `CC(C)CNc1nc(-c2cccc3[nH]ccc23)cn2c(-c3ccc(C(=O)NC4CC4)cc3)cnc12` [Example 1-22, N-cyclopropyl-4-{6-(1H-indol-4-yl)-8-[(2-methyl-propyl)amino]imidazo [1,2-a]pyrazin-3-yl} benzamide], 2.6 nM.
As for `CC(C)CNc1nc(-c2ccc3cc[nH]c3c2)cn2c(-c3ccc(C(=O)NC4CC4)cc3)cnc12` [Example 1-23, N-cyclopropyl-4-{6-(1H-indol-6-yl)-8-[(2-methyl-propyl)amino]imidazo [1,2-a]pyrazin-3-yl} benzamide], the IC50 was 21 nM.

The term IC50 denotes the concentration that gives 50% inhibition.
